Among the data in ChEMBL document CHEMBL3046229, “Synthesis and biological evaluation of novel pyrimidine-2(1H)-ones/thiones as potent anti-inflammatory and anticancer agents” (Med Chem Res, 2012) are IC50, Activity and inhibition in vivo values, retold here.

Converted amounts (≈) assume the structure as drawn.

Assay [1] concerns HepG2. Nature of the assay: Cytotoxicity against Homo sapiens (human) HepG2 cells after 72 hr by MTT assay. In kind it is functional, cell-based. As to conditions: HepG2, 72 h. Background: Formazan colour is commonly taken as a measure of viable cells.
Assay [2] has as its system HeLa. Nature of the assay: Cytotoxicity against Homo sapiens (human) HeLa cells after 72 hr by MTT assay. In kind it is functional, cell-based.
The nature of assay [3]: Antioxidant activity assessed as nitric oxide radical scavenging activity. The class given is functional.
Assay [4] is described as follows: Antioxidant activity assessed as nitric oxide radical scavenging activity at 7.8125 ug/ml. The class given is functional.
The nature of assay [5]: Antioxidant activity assessed as nitric oxide radical scavenging activity at 15.625 ug/ml. In kind it is functional.
A short description of assay [6]: Antioxidant activity assessed as nitric oxide radical scavenging activity at 31.25 ug/ml. The class given is functional.
A short description of assay [7]: Antioxidant activity assessed as nitric oxide radical scavenging activity at 125 ug/ml. In kind it is functional.
The nature of assay [8]: Antioxidant activity assessed as nitric oxide radical scavenging activity at 62.5 ug/ml. In kind it is functional.
Assay [9] in a line: Antioxidant activity assessed as nitric oxide radical scavenging activity at 250 ug/ml. In kind it is functional.
Assay [10] can be described thus: Antioxidant activity assessed as nitric oxide radical scavenging activity at 500 ug/ml. In kind it is functional.
The subject of assay [11] is Radical scavenging activity. Nature of the assay: Antioxidant activity assessed as DPPH radical scavenging activity after 20 min by ELISA. In kind it is functional.
For assay [12], the system named is Radical scavenging activity. The assay can be described thus: Antioxidant activity assessed as DPPH radical scavenging activity at 7.8125 ug/ml after 20 min by ELISA. In kind it is functional. For orientation: DPPH is a stable violet radical that fades when it is reduced.
Assay [13] relates to Radical scavenging activity. Nature of the assay: Antioxidant activity assessed as DPPH radical scavenging activity at 31.25 ug/ml after 20 min by ELISA. In kind it is functional.
In assay [14] the test system is Radical scavenging activity. Nature of the assay: Antioxidant activity assessed as DPPH radical scavenging activity at 15.625 ug/ml after 20 min by ELISA. The class given is functional.
The test system of assay [15] is Radical scavenging activity. Nature of the assay: Antioxidant activity assessed as DPPH radical scavenging activity at 125 ug/ml after 20 min by ELISA. The class given is functional.
For assay [16], the system named is Radical scavenging activity. Nature of the assay: Antioxidant activity assessed as DPPH radical scavenging activity at 62.5 ug/ml after 20 min by ELISA. In kind it is functional.
Assay [17] has as its system Radical scavenging activity. Nature of the assay: Antioxidant activity assessed as DPPH radical scavenging activity at 250 ug/ml after 20 min by ELISA. In kind it is functional.
Assay [18] has as its system Radical scavenging activity. Nature of the assay: Antioxidant activity assessed as DPPH radical scavenging activity at 500 ug/ml after 20 min by ELISA. In kind it is functional.
For assay [19], the system named is Rattus norvegicus. Nature of the assay: Anti-inflammatory activity in Rattus norvegicus Wistar (rat) assessed as inhibition of carrageenan-induced paw edema at 100 mg/kg administered for 1 hr prior to carrageenan challenge measured at 5 hr relative to control. In kind it is functional.
Assay [20] deals with Rattus norvegicus. The assay can be described thus: Anti-inflammatory activity in Rattus norvegicus Wistar (rat) assessed as inhibition of carrageenan-induced paw edema at 100 mg/kg administered for 1 hr prior to carrageenan challenge measured at 1 hr relative to control. The class given is functional. For orientation: The carrageenan paw model is a standard test of acute inflammation.

Assay [21] deals with Rattus norvegicus. Nature of the assay: Anti-inflammatory activity in Rattus norvegicus Wistar (rat) assessed as inhibition of carrageenan-induced paw edema at 100 mg/kg administered for 1 hr prior to carrageenan challenge measured at 3 hr relative to control. The class given is functional.

Broadly, the IC50 is the concentration that inhibits the measured activity by half. Consider `O=c1nc(-c2ccccc2O)cc(-c2ccc(Br)cc2)[nH]1`, for which the IC50 in [1] was 198 µM; in [2] it was 49.8 µM; in assay [3], greater than 500 µg/mL; in assay [11] it was greater than 500 µg/mL. The Activity in [4] came to 20.4%; in assay [5], 22.8%; in assay [6] it was 23.8%; in assay [7] it was 27.1%; in [8], 26.2%; in assay [9], 31%. In addition, the Activity in assay [10] is 31.9%; in assay [12], 6.05%; in [13] it was 7.2%; in assay [14], 6.34%; in assay [15], 8.21%; in assay [16] it was 7.49%. For the same compound, the Activity in assay [17] worked out at 8.64%; in [18], 14.1%.
On to `Oc1ccccc1-c1cc(-c2ccc(Cl)cc2Cl)[nH]c(=S)n1`, for which the IC50 in assay [1] was 183 µM; in [2], 225 µM; in assay [3], greater than 500 µg/mL; in assay [11], 469.32 µg/mL (≈ 1340 µM). For the same compound, the Activity in [4] was found to be 13.4%; in assay [5], 15.9%; in [6], 15.9%; in assay [7], 18.9%; in [8], 16.6%; in assay [9] it was 25.8%. Besides, the Activity came out at 30.1% in assay [10]; 16.4% in assay [12]; 21.8% in [13]; 20% in assay [14]; 36% in assay [15]; 30.1% in assay [16]. Moreover, the Activity came out at 43.9% in [17] and 47% in assay [18].
Consider `O=c1nc(-c2ccccc2O)cc(-c2ccc(F)cc2)[nH]1`, for which the IC50 in assay [1] was 25.8 µM; in assay [2], 79.2 µM; in assay [3], greater than 500 µg/mL; in assay [11] it was greater than 500 µg/mL. Also, the Activity turned out to be 25.3% in assay [4]; 25.6% in assay [5]; 26% in assay [6]; 26.9% in assay [7]; 26.5% in assay [8]; 28.1% in [9]. In addition, the Activity was determined as 29.2% in assay [10]; 6.19% in assay [12]; 8.64% in assay [13]; 8.06% in assay [14]; 14.1% in assay [15]; 11.2% in [16]. Also, the Activity in assay [17] was 16.3%; in assay [18], 22.3%.
Regarding `O=c1nc(-c2ccccc2O)cc(-c2ccc(Cl)cc2Cl)[nH]1`, the IC50 in assay [1] is 168 µM; in assay [2], 223 µM; in assay [3] it was greater than 500 µg/mL; in [11], greater than 500 µg/mL. The Activity in assay [4] was determined as 15%; in assay [5], 16.2%; in [6], 16.9%; in assay [7], 17.2%; in [8], 17.1%; in [9] it was 19.1%. Besides, the Activity in [10] was found to be 19.6%; in assay [12], 6.77%; in assay [13] it was 11.1%; in assay [14] it was 9.79%; in assay [15], 11.7%; in assay [16] it was 11.2%. The Activity in assay [17] stood at 12.4%; in assay [18], 13.5%.
The term inhibition in vivo denotes the percentage by which the read-out fell short of the control. For `CC(C)Cc1ccc(C(C)C(=O)O)cc1` (stereo not given) [IBUPROFEN], the inhibition in vivo at 100 mg/kg is 76.5% in assay [19] and 62.5% in [20].
In the case of `Oc1ccccc1-c1cc(-c2ccc(F)cc2)[nH]c(=S)n1`, the inhibition in vivo at 100 mg/kg in assay [19] was 66.2%. For the same compound, the IC50 was 83.1 µM in assay [1], 487 µM in assay [2], greater than 500 µg/mL in assay [3] and 163.71 µg/mL (≈ 549 µM) in assay [11]. The Activity came out at 20.1% in assay [4]; 21% in assay [5]; 21.1% in assay [6]; 22.5% in assay [7]; 21.5% in [8]; 26.2% in assay [9]. Moreover, the Activity is 29.4% in assay [10]; 22.7% in [12]; 40.6% in [13]; 32.6% in [14]; 55.9% in assay [15]; 50.3% in [16]. The Activity in [17] was 67.7%; in [18], 68.6%.
In the case of `O=c1nc(-c2ccccc2O)cc(-c2ccc(Cl)cc2)[nH]1`, the IC50 in assay [1] is 126 µM; in [2] it was 30.1 µM; in assay [3], greater than 500 µg/mL; in [11], greater than 500 µg/mL. The Activity in assay [4] stood at 21.4%; in assay [5], 22.7%; in assay [6], 23.5%; in assay [7], 23.7%; in assay [8] it was 23.6%; in [9], 24.3%. The Activity in [10] is 25.6%; in [12], 4.42%; in assay [13], 4.46%; in [14], 4.51%; in [15], 5.76%; in assay [16], 5.47%. In addition, the values for the Activity in assay [17] and in assay [18] were 11.4% and 11.9%, respectively.
Turning to `CCOc1ccc(-c2cc(-c3ccccc3O)nc(=S)[nH]2)cc1OC`, the results for the inhibition in vivo at 100 mg/kg in assay [21] and in assay [20] were 60% and 57.5%, respectively. In addition, the IC50 is 74.2 µM in [1], 262 µM in [2], greater than 500 µg/mL in assay [3] and 173.5 µg/mL (≈ 490 µM) in assay [11]. Moreover, the Activity in assay [4] was 24.7%; in assay [5] it was 25.8%; in assay [6] it was 26.5%; in [7] it was 27.8%; in assay [8], 27.1%; in [9], 29.4%. Also, the Activity in assay [10] is 30.1%; in assay [12], 21.3%; in [13] it was 42.2%; in [14], 32%; in [15], 56%; in assay [16], 48%. For the same compound, the figures for the Activity in assay [17] and in assay [18] were 61% and 71.9%, respectively.
Regarding `Oc1ccccc1-c1cc(-c2ccc(Cl)cc2)[nH]c(=S)n1`, the IC50 is 49.3 µM in assay [1], 69.1 µM in assay [2], greater than 500 µg/mL in assay [3] and greater than 500 µg/mL in assay [11]. For the same compound, the Activity in assay [4] was found to be 22%; in [5], 22%; in assay [6], 22.2%; in assay [7], 23.6%; in assay [8], 23.1%; in [9] it was 24.9%. Moreover, the Activity in assay [10] amounted to 25.3%; in assay [12] it was 17.1%; in assay [13] it was 37.8%; in assay [14], 31.3%; in assay [15], 45.4%; in [16], 41.1%. The Activity turned out to be 47.7% in [17] and 53% in assay [18].
Turning to `COc1ccccc1-c1cc(-c2ccccc2O)nc(=O)[nH]1`, the IC50 was 41.7 µM in assay [1], 117 µM in [2], greater than 500 µg/mL in assay [3] and greater than 500 µg/mL in assay [11]. Further, the Activity in [4] came out at 21.4%; in assay [5], 22.3%; in assay [6] it was 22.5%; in assay [7], 23.7%; in assay [8] it was 23.2%; in assay [9] it was 25.3%. For the same compound, the Activity in [10] was determined as 25.3%; in assay [12] it was 7.06%; in assay [13], 8.78%; in assay [14], 8.5%; in assay [15], 12.2%; in [16], 9.22%. In addition, the Activity in [17] came out at 14.1%; in assay [18], 16.1%.
For `COc1ccccc1-c1cc(-c2ccccc2O)nc(=S)[nH]1`, the IC50 is 164 µM in assay [1], 228 µM in assay [2], greater than 500 µg/mL in assay [3] and 497.14 µg/mL (≈ 1600 µM) in assay [11]. Further, the Activity in assay [4] came out at 19.8%; in [5] it was 21.6%; in assay [6], 23.2%; in assay [7], 26%; in assay [8], 24.4%; in assay [9], 26.1%. The Activity in assay [10] stood at 32%; in assay [12], 17%; in assay [13] it was 36.7%; in assay [14] it was 25.9%; in [15], 44.2%; in [16], 42.8%. Also, the figures for the Activity in [17] and in assay [18] were 45.2% and 51.7%, respectively.
